Source: ChEMBL document CHEMBL4483862, “Open-source discovery of chemical leads for next-generation chemoprotective antimalarials” (2018)
pIC50: −log10 of the molar value.

Test system: Plasmodium berghei
Assay: Luciferase/luciferin-expressing antifolate-resistant parasites were used to infect a culture of HepG2 cells that were pre-incubated with compounds. Infected hepatocytes emit light due to the luciferase reaction. Assay results are presented as the percent inhibition of light emission compared to control. […]
Assay type: functional
Details: sporozoite; for IC90: read-out: LUCIFERASE INFECTION ASSAY - IC90

Row | Structure (SMILES) | IC90 [µM] | further results
1 | Cc1nnsc1C(=O)Nc1ccc(-n2nc(C(F)(F)F)cc2C(F)(F)F)cc1 | > 7.83 | pIC50 (PBLUC_HILL_SLOPE 2.63, PBLUC_R_SQUARED 0.209, read-out: LUCIFERASE INFECTION ASSAY - IC50): 5.25
2 | Cc1cc(O)nc(N/N=C/c2c(C)nn(-c3ccccc3Cl)c2Cl)n1 | 2.19 | pIC50 (PBLUC_HILL_SLOPE 2.61, PBLUC_R_SQUARED 0.512, read-out: LUCIFERASE INFECTION ASSAY - IC50): 6.03
3 | CN(C)c1ccc(-c2cnc3cnc(-c4ccc(C(=O)NCCO)cc4)cn23)cc1 | > 8.22 | pIC50 (PBLUC_HILL_SLOPE 2.64, PBLUC_R_SQUARED 0.078, read-out: LUCIFERASE INFECTION ASSAY - IC50): 5.21
4 | Cc1cc(CSc2ccccc2C(=O)NNC(=O)c2ccccc2O)on1 | > 10 | pIC50 (PBLUC_HILL_SLOPE 2.63, PBLUC_R_SQUARED 0.786, read-out: LUCIFERASE INFECTION ASSAY - IC50): 5.13
5 | N#Cc1c(Cl)cccc1Oc1ccc(S(=O)(=O)Oc2c(Cl)cccc2Cl)cc1 | > 7.26 | pIC50 (PBLUC_HILL_SLOPE 2.67, PBLUC_R_SQUARED 0.0667, read-out: LUCIFERASE INFECTION ASSAY - IC50): 5.17
6 | NC(=O)Cc1ccc(C(=O)CSc2ncnc3sc(-c4ccccc4)cc23)s1 | > 10 | pIC50 (PBLUC_HILL_SLOPE 2.63, PBLUC_R_SQUARED 0.33, read-out: LUCIFERASE INFECTION ASSAY - IC50): 5.13
7 | CN(Cc1ccccc1)S(=O)(=O)N1CCC(C(O)(c2ccccc2)c2ccccc2)CC1 | 9.51 | pIC50 (PBLUC_HILL_SLOPE 2.67, PBLUC_R_SQUARED 0.571, read-out: LUCIFERASE INFECTION ASSAY - IC50): 5.38
8 | COc1ccc(OC)c(-c2csc(NC(=O)c3[nH]c(C)c(C(C)=O)c3C)n2)c1 | > 10 | pIC50 (PBLUC_HILL_SLOPE 2.64, PBLUC_R_SQUARED 0.217, read-out: LUCIFERASE INFECTION ASSAY - IC50): 5.23
9 | CC(NCC(O)COc1ccccc1C(C)(C)C)c1ccccc1 (stereo not given) | > 9.07 | pIC50 (PBLUC_HILL_SLOPE 2.67, PBLUC_R_SQUARED 0.166, read-out: LUCIFERASE INFECTION ASSAY - IC50): 5.36
10 | Cc1cc(Nc2ccc(C(c3ccc(C(=O)O)cc3)c3ccc(Nc4cc(C)nn4-c4ccccc4)nc3Cl)c(Cl)n2)n(-c2ccccc2)n1 | > 10 | pIC50 (PBLUC_HILL_SLOPE 2.61, PBLUC_R_SQUARED 0.324, read-out: LUCIFERASE INFECTION ASSAY - IC50): 5.21
11 | CN(C)S(=O)(=O)c1cc(C(=O)Nc2nc(-c3ccccc3)cn2/N=C/c2ccccc2)ccc1Cl | > 10 | pIC50 (PBLUC_HILL_SLOPE 2.59, PBLUC_R_SQUARED 0.747, read-out: LUCIFERASE INFECTION ASSAY - IC50): 5.24
12 | Cc1nc(-c2ccc(NC(=O)c3cnn(-c4ccccc4F)c3C(F)(F)F)cc2)cs1 | > 10 | pIC50 (PBLUC_HILL_SLOPE 2.7, PBLUC_R_SQUARED 0.26, read-out: LUCIFERASE INFECTION ASSAY - IC50): 5.11
13 | COc1cc(OC)cc(-c2cc3c(Nc4cccc(S(C)(=O)=O)c4)nccc3n2C)c1 | > 10 | pIC50 (PBLUC_HILL_SLOPE 2.63, PBLUC_R_SQUARED 0.0611, read-out: LUCIFERASE INFECTION ASSAY - IC50): 5.16
14 | CCOC(=O)N1CCC(Nc2ncnc3c2oc2ccccc23)CC1 | > 10 | pIC50 (PBLUC_HILL_SLOPE 2.64, PBLUC_R_SQUARED 0.787, read-out: LUCIFERASE INFECTION ASSAY - IC50): 5.17
15 | CCN(CC)CCn1c(NC(=O)c2cc(-c3cccs3)nn2-c2ccccc2)nc2ccccc21 | > 10 | pIC50 (PBLUC_HILL_SLOPE 2.69, PBLUC_R_SQUARED 0.0924, read-out: LUCIFERASE INFECTION ASSAY - IC50): 5.17
16 | CNc1nc2cnc(Nc3ccc(C(C)C)cc3)cc2n1Cc1ccc(OC)c(OC)c1 | > 10 | pIC50 (PBLUC_HILL_SLOPE 2.59, PBLUC_R_SQUARED 0.223, read-out: LUCIFERASE INFECTION ASSAY - IC50): 5.17
17 | CCCCCc1ccc(-c2nnc(SCC(=O)c3ccccc3)[nH]2)cc1 | > 9.03 | pIC50 (PBLUC_HILL_SLOPE 2.65, PBLUC_R_SQUARED 0.501, read-out: LUCIFERASE INFECTION ASSAY - IC50): < 5.04
18 | Cc1c(C(=O)Nc2ccnn2Cc2ccccc2)cnn1C(C)(C)C | > 10 | pIC50 (PBLUC_HILL_SLOPE 2.67, PBLUC_R_SQUARED 0.113, read-out: LUCIFERASE INFECTION ASSAY - IC50): < 5.00
19 | CN(C)CCCCCCOc1ccc2c(c1)CCC1C2CCC2(C)C(=O)CCC12 (stereo not given) | > 8.3 | pIC50 (PBLUC_HILL_SLOPE 2.65, PBLUC_R_SQUARED 0.355, read-out: LUCIFERASE INFECTION ASSAY - IC50): 5.43
20 | Cc1cccc(C)c1N1C(=O)C=CC1=O | > 16.4 | pIC50 (PBLUC_HILL_SLOPE 2.64, PBLUC_R_SQUARED 0.435, read-out: LUCIFERASE INFECTION ASSAY - IC50): < 4.79

Row | Structure (SMILES) | IC90 [µM] | further results
21 | CNc1nc2cnc(Nc3cccc(OC(F)(F)F)c3)cc2n1-c1cc(OC)c(OC)c(OC)c1 | > 10 | pIC50 (PBLUC_HILL_SLOPE 2.6, PBLUC_R_SQUARED 0.253, read-out: LUCIFERASE INFECTION ASSAY - IC50): 5.18
22 | Cc1cc(/C=C(\C#N)C(=O)OCC(=O)c2c(N)n(CC(C)C)c(=O)n(C)c2=O)c(C)n1CC(C)C | > 10 | pIC50 (PBLUC_HILL_SLOPE 2.67, PBLUC_R_SQUARED 0.243, read-out: LUCIFERASE INFECTION ASSAY - IC50): 5.11
23 | CC1=C/C(=N\NC(=O)c2ccc(Br)cc2)CC(C)(C)C1 | > 10 | pIC50 (PBLUC_HILL_SLOPE 2.58, PBLUC_R_SQUARED 0.715, read-out: LUCIFERASE INFECTION ASSAY - IC50): 5.18
24 | Cc1cc(=O)nc(N/N=C/c2cc(C)n(-c3ccc(C)c(C)c3)c2C)[nH]1 | > 10 | pIC50 (PBLUC_HILL_SLOPE 2.67, PBLUC_R_SQUARED 0.2, read-out: LUCIFERASE INFECTION ASSAY - IC50): 5.03
25 | CCc1nn2c(NCc3cccnc3)cc(C)nc2c1-c1ccccc1 | > 9.61 | pIC50 (PBLUC_HILL_SLOPE 2.62, PBLUC_R_SQUARED 0.301, read-out: LUCIFERASE INFECTION ASSAY - IC50): 5.14
26 | O=C(Nc1ccc(-n2cccn2)nc1)C1=NN(c2ccccc2)C(=O)CN1 | > 10 | pIC50 (PBLUC_HILL_SLOPE 2.66, PBLUC_R_SQUARED 0.194, read-out: LUCIFERASE INFECTION ASSAY - IC50): < 5.00
27 | COc1cccc(Cn2nc(C(=O)NC3CC3)c3c2CCN(Cc2cc4c(cc2Cl)OCO4)C3)c1 | > 6.67 | pIC50 (PBLUC_HILL_SLOPE 2.62, PBLUC_R_SQUARED 0.537, read-out: LUCIFERASE INFECTION ASSAY - IC50): 5.46
28 | Cc1cc(NC(=O)c2ccc(-c3cccc4ccccc34)s2)no1 | > 10 | pIC50 (PBLUC_HILL_SLOPE 2.6, PBLUC_R_SQUARED 0.519, read-out: LUCIFERASE INFECTION ASSAY - IC50): 5.30
29 | CCN(CC)S(=O)(=O)c1ccc(N/N=C/c2c(-c3ccccc3)[nH]c3ccccc23)nc1 | > 10 | pIC50 (PBLUC_HILL_SLOPE 2.64, PBLUC_R_SQUARED 0.392, read-out: LUCIFERASE INFECTION ASSAY - IC50): 5.35
30 | O=C(c1[nH]nc2ccccc12)N1CCN(S(=O)(=O)c2cccs2)CC1 | > 10 | pIC50 (PBLUC_HILL_SLOPE 2.58, PBLUC_R_SQUARED 0.457, read-out: LUCIFERASE INFECTION ASSAY - IC50): 5.12
31 | COc1ccc(C(N)=O)c(OCCC23CC4CC(CC(C4)C2)C3)c1 | > 10 | pIC50 (PBLUC_HILL_SLOPE 2.6, PBLUC_R_SQUARED 0.547, read-out: LUCIFERASE INFECTION ASSAY - IC50): 5.22
32 | CN1CCN(c2ccc(Cl)cc2NC(=O)Cn2c3ccccc3c(=O)c3ccccc32)CC1 | > 10 | pIC50 (PBLUC_HILL_SLOPE 2.6, PBLUC_R_SQUARED 0.61, read-out: LUCIFERASE INFECTION ASSAY - IC50): 5.35
33 | Cc1cc(C(=O)N/N=C/c2c(-c3ccccc3)nc3ccccn23)c(C)o1 | > 10 | pIC50 (PBLUC_HILL_SLOPE 2.6, PBLUC_R_SQUARED 0.44, read-out: LUCIFERASE INFECTION ASSAY - IC50): 5.19
34 | Cc1nn(-c2ccc(F)cc2)c2ncc(C(=O)Nc3nc(C4CC4)cs3)cc12 | 4.45 | pIC50 (PBLUC_HILL_SLOPE 2.65, PBLUC_R_SQUARED 0.58, read-out: LUCIFERASE INFECTION ASSAY - IC50): 5.71
35 | O=C(c1cc(C2=NNC(=Nc3ccc(Cl)cc3)SC2)c[nH]1)N1CCCC1 | > 10 | pIC50 (PBLUC_HILL_SLOPE 2.6, PBLUC_R_SQUARED 0.441, read-out: LUCIFERASE INFECTION ASSAY - IC50): 5.26
36 | O=C(/C=C/c1cccs1)N1CCN(S(=O)(=O)c2ccc(Cl)c(C(F)(F)F)c2)CC1 | > 10 | pIC50 (PBLUC_HILL_SLOPE 2.7, PBLUC_R_SQUARED 0.367, read-out: LUCIFERASE INFECTION ASSAY - IC50): 5.26
37 | FC(F)(F)c1ccc(Nc2n[nH]c(=S)s2)cc1 | > 11.9 | pIC50 (PBLUC_HILL_SLOPE 2.58, PBLUC_R_SQUARED 0.163, read-out: LUCIFERASE INFECTION ASSAY - IC50): 5.09
38 | CC(C)Cn1c(-c2cccs2)nc2c(c(=O)c3ccccc3n2C)c1=O | 8.59 | pIC50 (PBLUC_HILL_SLOPE 2.62, PBLUC_R_SQUARED 0.237, read-out: LUCIFERASE INFECTION ASSAY - IC50): 5.43
39 | CCOc1ccc(CN2CCN(C(=O)Cc3c(C)nn(C)c3C)CC2)cc1 | > 10 | pIC50 (PBLUC_HILL_SLOPE 2.6, PBLUC_R_SQUARED 0.21, read-out: LUCIFERASE INFECTION ASSAY - IC50): < 5.00
40 | Cc1sc2nc(CSc3ccccc3)nc(N3CCN(CC(=O)NC4CC4)CC3)c2c1C | > 10 | pIC50 (PBLUC_HILL_SLOPE 2.61, PBLUC_R_SQUARED 0.67, read-out: LUCIFERASE INFECTION ASSAY - IC50): 5.29
